Assay results: US7320972B2, “4-Biarylyl-1-phenylazetidin-2-ones” (Microbia, Inc., priority 2003, dated 2008)

System: cholesterol absorption (serum 3H-cholesterol)
Experiment: In Vivo Assay of Hypolipidemic Agents using the Rat Cholesterol Absorption Model
Set-up: species or system Sprague-Dawley rats
Settings: peroral; for inhibition in vivo at 1 mg/kg: po, serum 3H-cholesterol 3 h after cholesterol dose, vs vehicle control; for % inhibition at 0.3 mg/kg: 0.3 mg/kg (footnote 6)
Method: In Vivo Assay of Hypolipidemic Agents using the Rat Cholesterol Absorption Model. This model is based on models described by Burnett et al (2002), Bioorg. Med. Chem. Lett. 2002 Feb. 11;12(3):315-8 and J. Lipid Res. 1999 October;40(10):1747-57. Female Sprague-Dawley rats weighing 150-250 g are separated into groups of […] and fasted overnight. The animals (4-6/group) are dosed perorally with 300 μL test compounds in olive oil or suitable vehicle. Thirty minutes later, 3-5 microCuries ^3H-cholesterol per rat are delivered perorally in 300 μL olive oil. After three hours, 200 μL serum is collected, vortexed with scintillation fluid, and measured for radioactivity in a scintillation counter. Percent inhibition is defined as 100*(1−Ctest/Cctrl), where Ctest and Cctl refer to ^3H levels in serum for the test compound and for the vehicle only control, respectively. Percent inhibition values are reported for a fixed dose. The ED50 is the dose at which the half-maximal effect on serum ^3H levels is observed for a given test compound.
Representative compounds of the invention were tested in the Rat Cholesterol Absorption model above.

[1] = serum 3H-cholesterol vs vehicle control

Structure (SMILES)	inhibition in vivo at 1 mg/kg [%]	also measured
O=C1[C@H](CC[C@H](O)c2ccc(F)cc2)[C@@H](c2ccc(-c3cccc([C@@H]4O[C@H](CO)[C@@H](O)[C@H](O)[C@H]4O)c3)cc2)N1c1ccccc1 [Example 64, (1S)-1,5-Anhydro-1-(4′-{(2S,3R)-3-[(3S)-3-(4-fluorophenyl)-3-hydroxypropyl]-4-oxo-1-phenylazetidin-2-yl}biphenyl-3-yl)-D-glucitol]	67	
O=C1[C@H](CC[C@H](O)c2ccc(F)cc2)[C@@H](c2ccc(-c3cccc([C@@H]4O[C@H](CO)[C@@H](O)[C@H](O)[C@H]4O)c3)cc2O)N1c1ccccc1 [Example 65, (1S)-1,5-Anhydro-1-(4′-{(2S,3R)-3-[(3S)-3-(4-fluorophenyl)-3-hydroxypropyl]-4-oxo-1-phenylazetidin-2-yl}-3′-hydroxybiphenyl-3-yl)-D-glucitol]		% inhibition at 0.1 mg/kg (0.1 mg/kg (footnote 5), serum 3H-cholesterol vs vehicle control): 60^5%
O=C1[C@H](CC[C@H](O)c2ccc(F)cc2)[C@@H](c2ccc(-c3ccc([C@@H]4O[C@H](CO)[C@@H](O)[C@H](O)[C@H]4O)cc3)cc2O)N1c1ccccc1 [Example 66, (1S)-1,5-Anhydro-1-(4′-{(2S,3R)-3-[(3S)-3-(4-fluorophenyl)-3-hydroxypropyl]-4-oxo-1-phenylazetidin-2-yl}-3′-hydroxybiphenyl-4-yl)-D-glucitol]		% inhibition at 0.3 mg/kg [1]: 71^6%
O=C1[C@H](CC[C@H](O)c2ccc(F)cc2)[C@@H](c2ccc(-c3cccc([C@H](O)[C@H]4OC(O)[C@H](O)[C@@H](O)[C@@H]4O)c3)cc2)N1c1ccccc1 (stereo partly drawn) [Example 71, (6S)-6-C-(4′-{(2S,3R)-3-[(3S)-3-(4-Fluorophenyl)-3-hydroxypropyl]-4-oxo-1-phenylazetidin-2-yl}biphenyl-3-yl)-D-glucopyranose]	65	
O=C1[C@H](CC[C@H](O)c2ccc(F)cc2)[C@@H](c2ccc(-c3cccc([C@@H](O)[C@H]4OC(O)[C@H](O)[C@@H](O)[C@@H]4O)c3)cc2)N1c1ccccc1 (stereo partly drawn) [Example 72, (6R)-6-C-(4′-{(2S,3R)-3-[(3S)-3-(4-Fluorophenyl)-3-hydroxypropyl]-4-oxo-1-phenylazetidin-2-yl}biphenyl-3-yl)-D-glucopyranose]		% inhibition at 0.3 mg/kg [1]: 27^6%
O=C1[C@H](CC[C@H](O)c2ccc(F)cc2)[C@@H](c2ccc(-c3cccc([C@H](O)[C@H]4OC(O)[C@H](O)[C@@H](O)[C@@H]4O)c3)cc2O)N1c1ccccc1 (stereo partly drawn) [Example 73, (6S)-6-C-(4′-{(2S,3R)-3-[(3S)-3-(4-Fluorophenyl)-3-hydroxypropyl]-4-oxo-1-phenylazetidin-2-yl}-3′-hydroxybiphenyl-3-yl)-D-glucopyranose]	59	
O=C1[C@H](CC[C@H](O)c2ccc(F)cc2)[C@@H](c2ccc(-c3cccc([C@@H](O)[C@H]4OC(O)[C@H](O)[C@@H](O)[C@@H]4O)c3)cc2O)N1c1ccccc1 (stereo partly drawn) [Example 74, (6R)-6-C-(4′-{(2S,3R)-3-[(3S)-3-(4-Fluorophenyl)-3-hydroxypropyl]-4-oxo-1-phenylazetidin-2-yl}-3′-hydroxybiphenyl-3-yl)-D-glucopyranose]	67	
O=C1[C@H](CC[C@H](O)c2ccc(F)cc2)[C@@H](c2ccc(-c3cccc([C@H](O)[C@@H](O)[C@@H](O)[C@H](O)[C@@H](O)CO)c3)cc2O)N1c1ccccc1 [Example 75, (6S)-6-C-(4′-{(2S,3R)-3-[(3S)-3-(4-Fluorophenyl)-3-hydroxypropyl]-4-oxo-1-phenylazetidin-2-yl}-3′-hydroxybiphenyl-3-yl)-D-glucitol]	68	
O=C1[C@H](CC[C@H](O)c2ccc(F)cc2)[C@@H](c2ccc(-c3cccc(OC[C@H]4OC(O)[C@H](O)[C@@H](O)[C@@H]4O)c3)cc2)N1c1ccc(F)cc1 (stereo partly drawn) [Example 76, 6-O-(4′-{(2S,3R)-1-(4-Fluorophenyl)-3-[(3S)-3-(4-fluorophenyl)-3-hydroxypropyl]-4-oxoazetidin-2-yl}biphenyl-3-yl)-D-glucopyranose]	56	
CO[C@H]1O[C@H](COc2cccc(-c3ccc([C@@H]4[C@@H](CC[C@H](O)c5ccc(F)cc5)C(=O)N4c4ccc(F)cc4)cc3)c2)[C@@H](O)[C@H](O)[C@H]1O [Example 77, Methyl 6-O-(4′-{(2S,3R)-1-(4-fluorophenyl)-3-[(3S)-3-(4-fluorophenyl)-3-hydroxypropyl]-4-oxoazetidin-2-yl}biphenyl-3-yl)-α-D-glucopyranoside]	70	
O=C1[C@H](CC[C@H](O)c2ccc(F)cc2)[C@@H](c2ccc(-c3cccc(OC[C@@H](O)[C@@H](O)[C@H](O)[C@@H](O)CO)c3)cc2)N1c1ccc(F)cc1 [Example 78, 6-O-(4′-{(2S,3R)-1-(4-Fluorophenyl)-3-[(3S)-3-(4-fluorophenyl)-3-hydroxypropyl]-4-oxoazetidin-2-yl}biphenyl-3-yl)-D-glucitol]	51	
COc1ccc(-c2ccc([C@@H]3[C@@H](CC[C@H](O)c4ccc(F)cc4)C(=O)N3c3ccc(F)cc3)cc2)cc1OC [Example 81, (3R,4S)-4-(3′,4′-dimethoxybiphenyl-4-yl)-1-(4-fluorophenyl)-3-[(3S)-3-(4-fluorophenyl)-3-hydroxypropyl]azetidin-2-one]	17	
CSc1cccc(-c2ccc([C@@H]3[C@@H](CC[C@H](O)c4ccc(F)cc4)C(=O)N3c3ccc(F)cc3)cc2)c1 [Example 82, (3R,4S)-1-(4-fluorophenyl)-3-[(3S)-3-(4-fluorophenyl)-3-hydroxypropyl]-4-[3′-(methylthio)biphenyl-4-yl]azetidin-2-one]	28	
CN(C)c1cccc(-c2ccc([C@@H]3[C@@H](CC[C@H](O)c4ccc(F)cc4)C(=O)N3c3ccc(F)cc3)cc2)c1 [Example 83, (3R,4S)-4-[3′-(dimethylamino)biphenyl-4-yl]-1-(4-fluorophenyl)-3-[(3S)-3-(4-fluorophenyl)-3-hydroxypropyl]azetidin-2-one]	38	
C=Cc1ccc(-c2ccc([C@@H]3[C@@H](CC[C@H](O)c4ccc(F)cc4)C(=O)N3c3ccc(F)cc3)cc2)cc1 [Example 84, (3R,4S)-1-(4-fluorophenyl)-3-[(3S)-3-(4-fluorophenyl)-3-hydroxypropyl]-4-(4′-vinylbiphenyl-4-yl)azetidin-2-one]	51	
COc1ccc(C=O)c(-c2ccc([C@@H]3[C@@H](CC[C@H](O)c4ccc(F)cc4)C(=O)N3c3ccc(F)cc3)cc2)c1 [Example 85, 4′-{(2S,3R)-1-(4-fluorophenyl)-3-[(3S)-3-(4-fluorophenyl)-3-hydroxypropyl]-4-oxoazetidin-2-yl}-5-methoxybiphenyl-2-carbaldehyde]	15	
Nc1cccc(-c2ccc([C@@H]3[C@@H](CC[C@H](O)c4ccc(F)cc4)C(=O)N3c3ccc(F)cc3)cc2)c1 [Example 86, (3R,4S)-4-(3′-aminobiphenyl-4-yl)-1-(4-fluorophenyl)-3-[(3S)-3-(4-fluorophenyl)-3-hydroxypropyl]azetidin-2-one]	35	
O=C1[C@H](CC[C@H](O)c2ccc(F)cc2)[C@@H](c2ccc(-c3ccc4c(c3)OCCO4)cc2)N1c1ccc(F)cc1 [Example 87, (3R,4S)-4-[4-(2,3-dihydro-1,4-benzodioxin-6-yl)phenyl]-1-(4-fluorophenyl)-3-[(3S)-3-(4-fluorophenyl)-3-hydroxypropyl]azetidin-2-one]	59	
